According to ChEMBL document CHEMBL1201862, “PubChem BioAssay data set” (2004):
Active and inactive are the calls of the source.

Assays:
Cytochrome P450 2D6 = Cytochrome P450 2D6 (Homo sapiens, UniProt P10635);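 also: CYP2D6 member of a cytochrome P450 panel assay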
[1] = target: T1, Rac GTPase-activating protein 1 (Homo sapiens, UniProt Q9H0H5); assay: blockers of MgcRacGAP-driven Rac1 GTP hydrolysis – biochemical, ADP Hunter fluorescence, primary and confirmatory, confirmation (AID 624330); type: functional
T1 sequence (Q9H0H5 whole entry): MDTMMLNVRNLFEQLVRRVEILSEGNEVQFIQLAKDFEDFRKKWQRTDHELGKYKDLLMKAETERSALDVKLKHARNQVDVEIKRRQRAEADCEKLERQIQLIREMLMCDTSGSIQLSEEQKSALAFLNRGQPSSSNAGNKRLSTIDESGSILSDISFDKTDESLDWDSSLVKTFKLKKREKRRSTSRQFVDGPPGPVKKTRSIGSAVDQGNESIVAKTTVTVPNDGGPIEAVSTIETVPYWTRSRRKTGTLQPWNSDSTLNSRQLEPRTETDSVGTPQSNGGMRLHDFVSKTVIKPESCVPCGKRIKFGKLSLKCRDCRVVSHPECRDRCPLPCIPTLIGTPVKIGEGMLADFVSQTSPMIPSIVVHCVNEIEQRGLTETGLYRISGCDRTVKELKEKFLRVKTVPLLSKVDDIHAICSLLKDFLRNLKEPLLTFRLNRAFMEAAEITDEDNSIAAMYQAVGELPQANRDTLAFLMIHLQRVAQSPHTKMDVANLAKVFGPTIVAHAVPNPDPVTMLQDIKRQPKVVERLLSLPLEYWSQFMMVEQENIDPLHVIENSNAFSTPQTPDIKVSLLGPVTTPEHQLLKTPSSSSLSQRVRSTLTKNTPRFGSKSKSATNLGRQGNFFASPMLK

Cytochrome P450 2C19 = Cytochrome P450 2C19 (Homo sapiens, UniProt P33261); assay: Cytochrome panel assay with activity outcomes. Panel member name: p450-cyp2c19 Compounds with AC50 equal or less than 10 uM are considered active; type: functional
Chain of Cytochrome P450 2C19 (P33261 whole entry): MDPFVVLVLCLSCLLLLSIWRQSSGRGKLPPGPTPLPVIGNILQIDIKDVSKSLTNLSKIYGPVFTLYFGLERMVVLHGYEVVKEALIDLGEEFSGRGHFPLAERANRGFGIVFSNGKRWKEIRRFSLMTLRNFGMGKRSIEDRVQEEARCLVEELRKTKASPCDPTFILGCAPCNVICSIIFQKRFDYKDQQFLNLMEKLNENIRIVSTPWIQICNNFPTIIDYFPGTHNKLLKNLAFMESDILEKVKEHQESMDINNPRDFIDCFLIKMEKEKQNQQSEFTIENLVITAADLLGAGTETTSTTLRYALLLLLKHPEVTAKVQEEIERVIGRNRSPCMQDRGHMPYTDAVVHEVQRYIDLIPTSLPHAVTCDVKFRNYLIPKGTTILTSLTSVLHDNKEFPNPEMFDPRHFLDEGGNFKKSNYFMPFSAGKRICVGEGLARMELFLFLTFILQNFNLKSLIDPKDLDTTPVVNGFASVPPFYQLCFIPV

Cytochrome P450 2C9 = Cytochrome P450 2C9 (Homo sapiens, UniProt P11712)
Chain of Cytochrome P450 2C9 (P11712 whole entry): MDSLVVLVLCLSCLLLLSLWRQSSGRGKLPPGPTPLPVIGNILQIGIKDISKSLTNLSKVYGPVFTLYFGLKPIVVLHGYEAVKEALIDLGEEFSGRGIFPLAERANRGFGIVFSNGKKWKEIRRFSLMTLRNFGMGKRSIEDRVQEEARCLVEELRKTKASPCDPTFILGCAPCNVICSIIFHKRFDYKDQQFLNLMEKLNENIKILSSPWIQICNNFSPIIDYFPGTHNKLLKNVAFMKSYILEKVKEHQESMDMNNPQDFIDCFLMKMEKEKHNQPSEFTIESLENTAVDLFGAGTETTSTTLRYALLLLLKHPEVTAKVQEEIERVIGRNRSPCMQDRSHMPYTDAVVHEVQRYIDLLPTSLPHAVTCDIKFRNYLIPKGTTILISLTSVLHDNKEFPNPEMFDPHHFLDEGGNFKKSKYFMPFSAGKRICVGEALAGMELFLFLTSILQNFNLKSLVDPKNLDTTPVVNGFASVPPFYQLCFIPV

Cytochrome P450 1A2 = target: T2, Cytochrome P450 1A2 (Homo sapiens, UniProt P05177);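 also: PubChem cytochrome P450 panel assay, CYP1A2 panel member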
T2 sequence (P05177 whole entry): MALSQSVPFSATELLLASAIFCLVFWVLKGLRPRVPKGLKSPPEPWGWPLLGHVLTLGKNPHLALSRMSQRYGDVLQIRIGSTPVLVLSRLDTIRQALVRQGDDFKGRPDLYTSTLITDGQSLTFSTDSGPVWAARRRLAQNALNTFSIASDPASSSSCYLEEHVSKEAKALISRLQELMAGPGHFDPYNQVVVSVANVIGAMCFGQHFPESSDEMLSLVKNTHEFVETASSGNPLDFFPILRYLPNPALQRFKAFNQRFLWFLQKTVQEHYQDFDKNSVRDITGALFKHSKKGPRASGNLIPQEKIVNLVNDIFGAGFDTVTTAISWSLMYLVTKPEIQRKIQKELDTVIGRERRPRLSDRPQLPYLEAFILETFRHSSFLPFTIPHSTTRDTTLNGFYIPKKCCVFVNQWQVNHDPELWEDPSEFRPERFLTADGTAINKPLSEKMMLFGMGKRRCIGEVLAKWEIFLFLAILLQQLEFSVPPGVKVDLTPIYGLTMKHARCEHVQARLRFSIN

Chain of Cytochrome P450 2D6 (P10635 whole entry): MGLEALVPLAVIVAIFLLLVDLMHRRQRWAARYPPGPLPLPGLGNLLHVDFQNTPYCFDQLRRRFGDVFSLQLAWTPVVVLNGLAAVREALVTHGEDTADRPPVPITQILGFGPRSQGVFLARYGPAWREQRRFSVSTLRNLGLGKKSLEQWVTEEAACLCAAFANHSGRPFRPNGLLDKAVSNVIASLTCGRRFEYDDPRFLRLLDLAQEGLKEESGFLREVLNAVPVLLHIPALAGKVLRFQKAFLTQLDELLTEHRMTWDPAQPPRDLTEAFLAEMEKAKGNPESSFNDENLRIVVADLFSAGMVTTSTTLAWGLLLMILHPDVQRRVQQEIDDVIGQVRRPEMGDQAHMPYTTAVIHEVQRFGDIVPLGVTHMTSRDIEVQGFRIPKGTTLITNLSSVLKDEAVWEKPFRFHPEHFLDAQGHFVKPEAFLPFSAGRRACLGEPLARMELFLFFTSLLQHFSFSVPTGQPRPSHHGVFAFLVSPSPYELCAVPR

With `CN(C)c1ccc(-c2cncnc2-n2ccnc2)cc1` as the compound, how does the AC50 (Cytochrome P450 2D6) read?
The AC50 was 39.8 µM (inconclusive).

Which IC50 [1] does the source give for `Cc1cccn2c(S)nnc12` here?
Its IC50 is 17.2 µM (active).

For `Cn1c(=O)c(C(=O)CN2CCOCC2)c(N)n(Cc2ccccc2)c1=O`, which AC50 (Cytochrome P450 2C19; read-out: AC50) is on record?
Its AC50 is 39.8 µM (inconclusive).

What about the AC50 (Cytochrome P450 2D6) of the same compound?
The AC50 was 7.94 µM (inconclusive).

For `COc1cc(/C=N/NC(=O)c2cccnc2)ccc1OC(=O)c1ccco1`, which AC50 (Cytochrome P450 2C19; read-out: AC50) is on record?
Its AC50 is 8.91 µM (inconclusive).

What about the AC50 (Cytochrome P450 2C9) of the same compound?
Its AC50 is 28.2 µM (inconclusive).

`COc1ccc(C(=O)NC2CC3CCCC(C2)N3CC(C)C)cc1OC` (configuration not stated) was tested. Which AC50 (Cytochrome P450 2C9) did it give?
Its AC50 is 22.4 µM (inconclusive).

`COc1ccccc1N1CCN(CCN(C(=O)C2CCCCC2)c2ccccn2)CC1` [WAY-100,635] was tested. Which AC50 (Cytochrome P450 2D6) did it give?
The AC50 was 31.6 µM (inconclusive).

For `COc1cc(CNCc2cc(OC)c(OC)c(OC)c2)cc(OC)c1`, which IC50 [1] is on record?
Its IC50 is 203 µM (active).

For `Cc1ccccc1-c1cc(NCc2ccccc2)ncn1`, which AC50 (Cytochrome P450 2D6) is on record?
Its AC50 is 31.6 µM (inconclusive).

`COC(=O)CSc1nnc(CNc2ccc(Cl)cc2)n1-c1ccccc1` was tested. Which AC50 (Cytochrome P450 2C9) did it give?
Its AC50 is 22.4 µM (inconclusive).

`O=C(ON=C1CCN(S(=O)(=O)c2ccccc2)CC1)c1ccccc1` was tested. Which AC50 (Cytochrome P450 2C9) did it give?
The AC50 was 31.6 µM (inconclusive).

`Nc1nc(N)c(CCCCc2ccccc2)c(N)n1` was tested. Which AC50 (Cytochrome P450 2D6) did it give?
The AC50 was 3.98 µM (inconclusive).

Which results are given for `COc1ccccc1NC(=O)CN1CCN(CC(=O)Nc2ccc(OCc3ccccc3)cc2)CC1`?
AC50 (Cytochrome P450 2D6): 20 µM (inconclusive); AC50 (Cytochrome P450 1A2): 10 µM (inconclusive)

For `COc1cc(/C=N/NC(=O)C2CCN(CC(O)COCc3ccccc3)CC2)ccc1O` (configuration not stated), which IC50 [1] is on record?
Its IC50 is 31.5 µM (active).

Which AC50 (Cytochrome P450 2C19; read-out: AC50) does the source give for `Fc1ccc(-c2ccnc3nc(N4CCOCC4)nn23)cc1` here?
Its AC50 is 3.55 µM (inconclusive).

With `CCOc1ccccc1C1C(C(N)=O)=C(C)Nc2nc(-c3ccc(OC)cc3)nn21` (configuration not stated) as the compound, how does the AC50 (Cytochrome P450 2D6) read?
Its AC50 is 1 µM (inconclusive).

What about the AC50 (Cytochrome P450 1A2) of the same compound?
Its AC50 is 15.8 µM (inconclusive).

And the AC50 (Cytochrome P450 2C9)?
The AC50 was 15.8 µM (inconclusive).

Which IC50 [1] does the source give for `O=c1cc(-c2ccc(O)c(O)c2)oc2cc(O)c([C@@H]3O[C@H](CO)[C@@H](O)[C@H](O)[C@H]3O)c(O)c12` [ISOORIENTIN] here?
Its IC50 is 40.9 µM (active).

Which IC50 [1] does the source give for `Cc1cccn2c(NCc3ccc4c(c3)OCO4)c(-c3ccc(O)cc3)nc12` here?
Its IC50 is 68.7 µM (active).

`COc1ccc(NCc2nnc(SCc3ccccc3)n2-c2ccc(OC)cc2)cc1` was tested. Which AC50 (Cytochrome P450 1A2) did it give?
Its AC50 is 17.8 µM (inconclusive).

What about the AC50 (Cytochrome P450 2C9) of the same compound?
The AC50 was 12.6 µM (inconclusive).

How did the IC50 [1] turn out when `COc1cc(/C=N/NC(=O)c2[nH]nc3c2CCc2ccccc2-3)ccc1O` was run?
The IC50 was 54.3 µM (active).

With `COC(=O)[C@@]1(Cc2ccccc2)[C@H]2c3cc(C(=O)N4CCCC4)n(Cc4ccccn4)c3C[C@H]2CN1C(=O)c1ccccc1` as the compound, how does the AC50 (Cytochrome P450 2D6) read?
Its AC50 is 39.8 µM (inconclusive).

Which AC50 (Cytochrome P450 1A2) does the source give for `Cc1ccc(C(=O)Oc2cc(C)n(C)c(=O)c2)cc1` here?
The AC50 was 25.1 µM (inconclusive).

What about the AC50 (Cytochrome P450 2C9) of the same compound?
Its AC50 is 11.2 µM (inconclusive).

How did the AC50 (Cytochrome P450 2C19; read-out: AC50) turn out when `c1ccc2c(c1)ncn2Cc1nnc2sc(-c3ccc4c(c3)OCO4)nn12` was run?
Its AC50 is 15.8 µM (inconclusive).

What about the AC50 (Cytochrome P450 2D6) of the same compound?
Its AC50 is 15.8 µM (inconclusive).

What about the AC50 (Cytochrome P450 1A2) of the same compound?
The AC50 was 1.12 µM (inconclusive).

Which AC50 (Cytochrome P450 2D6) does the source give for `O=C(CSc1nc2ccccc2s1)NNC(=S)Nc1ccc(Br)cc1` here?
The AC50 was 3.55 µM (inconclusive).

With `COc1cccc(/C=N/NC(=O)c2c(-c3ccccc3)noc2C)c1` as the compound, how does the AC50 (Cytochrome P450 2D6) read?
Its AC50 is 17.8 µM (inconclusive).

How did the AC50 (Cytochrome P450 2C9) turn out when `Cn1cc(C(=O)c2cccc(Cl)c2Cl)cc1C(=O)O` was run?
Its AC50 is 31.6 µM (inconclusive).

For `CN1CCN(C(=O)C(C(=O)c2ccc(F)cc2)n2ccccc2=O)CC1` (configuration not stated), which AC50 (Cytochrome P450 2C19) is on record?
Its AC50 is “inconclusive”.

For `O=C(c1ccncc1)N1CCC2(CC1)CCN(c1cccc(-c3ccccc3)c1)CC2`, which AC50 (Cytochrome P450 1A2) is on record?
Its AC50 is 20 µM (inconclusive).

What about the AC50 (Cytochrome P450 2C9) of the same compound?
The AC50 was 12.6 µM (inconclusive).

How did the IC50 [1] turn out when `CC(C(=O)NCC(=O)Nc1ccc(F)c(F)c1F)N1CCN(c2ccc(O)cc2)CC1` (configuration not stated) was run?
The IC50 was 42.5 µM (active).

Which AC50 (Cytochrome P450 2C19; read-out: AC50) does the source give for `COc1ccccc1CNc1cc(-c2cccnc2)ncn1` here?
The AC50 was 15.8 µM (inconclusive).

With `O=C(NCc1ccccc1)/C(=C\c1ccc(O)cc1)NC(=O)c1ccco1` as the compound, how does the IC50 [1] read?
Its IC50 is 141 µM (active).

Which IC50 [1] does the source give for `Cc1cc(OCc2nc3ccccc3s2)ccc1N` here?
The IC50 was 60.7 µM (active).

What does the source list for `COc1ccc(-n2ncc3c(NCC4CCCO4)ncnc32)cc1` (configuration not stated)?
AC50 (Cytochrome P450 2C19; read-out: AC50): 8.91 µM (inconclusive); AC50 (Cytochrome P450 2C9): 12.6 µM (inconclusive)

For `Cc1cc(C)cc(-n2c(C)cc(C=C(C#N)C#N)c2C)c1`, which AC50 (Cytochrome P450 2C9) is on record?
Its AC50 is 2.51 µM (inconclusive).

For `Cc1ccc2c(CC(=O)OCc3cc(=O)n4c(n3)sc3ccccc34)coc2c1`, which AC50 (Cytochrome P450 2D6) is on record?
The AC50 was 31.6 µM (inconclusive).

`O=C(c1cnccn1)N1CCC2(CCCN(c3cccc(-c4ccccc4)c3)C2)CC1` was tested. Which AC50 (Cytochrome P450 2C19; read-out: AC50) did it give?
Its AC50 is 7.94 µM (inconclusive).

For `c1ccc2c(Nc3ccncc3)nc(-c3ccoc3)nc2c1`, which AC50 (Cytochrome P450 2D6) is on record?
Its AC50 is 15.8 µM (inconclusive).

`Cn1cccc1C(=O)N1CCC2(CC1)CCN(c1ccncc1)CC2` was tested. Which AC50 (Cytochrome P450 2D6) did it give?
The AC50 was 25.1 µM (inconclusive).

And the AC50 (Cytochrome P450 1A2)?
The AC50 was 15.8 µM (inconclusive).

`CN(CCCCCCN(C)Cc1ccccc1O)Cc1ccccc1O` was tested. Which IC50 [1] did it give?
The IC50 was 73.6 µM (active).

For `COc1cc(-c2nc3cnccn3c2Nc2c(C)cccc2C)ccc1O`, which IC50 [1] is on record?
The IC50 was 46.4 µM (active).

Which AC50 (Cytochrome P450 2C19; read-out: AC50) does the source give for `Cc1noc(C)c1-c1cc(N(C)Cc2ccco2)ncn1` here?
Its AC50 is 15.8 µM (inconclusive).

What does the source list for `Cc1ccccc1-c1cncnc1NCCN1CCOCC1`?
AC50 (Cytochrome P450 2D6): 39.8 µM (inconclusive); AC50 (Cytochrome P450 1A2): 15.8 µM (inconclusive)

For `CC(C)Oc1ccc(OCCn2c(S)nc3c(N)ncnc32)cc1`, which IC50 [1] is on record?
Its IC50 is 95.3 µM (active).

With `CN(C)C(=O)c1ccc(-c2nc(NCc3ccccc3)c3ccccc3n2)cc1` as the compound, how does the AC50 (Cytochrome P450 2C19; read-out: AC50) read?
Its AC50 is 25.1 µM (inconclusive).

And the AC50 (Cytochrome P450 2D6)?
Its AC50 is 39.8 µM (inconclusive).
